This is an account of results in paper PMC12345137 (mBio, 2025).

Assay [1] concerns the target T1, SA AgrC-I (Staphylococcus aureus, UniProt O07911). Kind of assay: β-Lactamase assay, reporter strain RN10829 (P2-agrA:P3-blaZ) with pagrC-I. The class given is cell-based. From the text:
The β-lactamase reporter strain RN10829 (P2-agrA:P3-blaZ) ([62]), with pagrC-I ([63]), pagrC-II, pagrC-III, or pagrC-IV ([11]), substituting the native agr locus with a chromosomal integration of P2-agrA and P3-blaZ and a plasmid from which a wild-type variant of the corresponding AgrC is expressed, was used to assess inhibition and activation of the AgrC receptor via β-lactamase activity in response to varying concentrations of the QS modulating peptides. Overnight cultures of the reporter strains in TSB medium were diluted 1:250 in fresh TSB medium and grown to OD600 = 0.35–0.40 (early exponential phase) at 37°C. Peptide solutions (10 μL) in 1:10 serial dilutions from DMSO stock solutions (1 mM) in TSB medium (final concentrations = 10 μM–10 pM) were added to each well of a clear 96-well plate as well as solutions (10 μL) of cognate AIP (final concentration = 100 nM) in TSB medium followed by 80 μL of bacterial cells. […] The 96-well plates were incubated at 37°C shaking at 200 rpm for 1 h and immediately frozen down at −80°C to minimize growth during nitrocefin treatment. Next, the 96-well plates were thawed, and OD600 values were determined using a plate reader followed by the addition of 50 μL of nitrocefin solution to the wells (final concentration = 33.3 μg/mL). β-Lactamase activity was monitored at OD486 every 20 s for 10 min at 37°C using a plate-reader. Linear nitrocefin conversion rates were plotted to obtain IC50 values by non-linear regression with variable slope using GraphPad Prism 10.4 software. Assays were performed at least as duplicate determinations in biological triplicate.

Assay [2] has as its target T2, SA AgrC-II (Staphylococcus aureus, UniProt O33587). Kind of assay: β-Lactamase assay, reporter strain RN10829 (P2-agrA:P3-blaZ) with pagrC-II. The class given is cell-based. The text has this:
(§1) The β-lactamase reporter strain RN10829 (P2-agrA:P3-blaZ) ([62]), with pagrC-I ([63]), pagrC-II, pagrC-III, or pagrC-IV ([11]), substituting the native agr locus with a chromosomal integration of P2-agrA and P3-blaZ and a plasmid from which a wild-type variant of the corresponding AgrC is expressed, was used to assess inhibition and activation of the AgrC receptor via β-lactamase activity in response to varying concentrations of the QS modulating peptides. Overnight cultures of the reporter strains in TSB medium were diluted 1:250 in fresh TSB medium and grown to OD600 = 0.35–0.40 (early exponential phase) at 37°C. Peptide solutions (10 μL) in 1:10 serial dilutions from DMSO stock solutions (1 mM) in TSB medium (final concentrations = 10 μM–10 pM) were added to each well of a clear 96-well plate as well as solutions (10 μL) of cognate AIP (final concentration = 100 nM) in TSB medium followed by 80 μL of bacterial cells. Control wells for 100% β-lactamase activity were wells replacing peptide solution with TSB media (10 μL), and control wells for 0% β-lactamase activity were wells replacing both peptide and cognate AIP solutions with TSB medium (20 μL). The 96-well plates were incubated at 37°C shaking at 200 rpm for 1 h and immediately frozen down at −80°C to minimize growth during nitrocefin treatment. Next, the 96-well plates were thawed, and OD600 values were determined using a plate reader followed by the addition of 50 μL of nitrocefin solution to the wells (final concentration = 33.3 μg/mL). β-Lactamase activity was monitored at OD486 every 20 s for 10 min at 37°C using a plate-reader. Linear nitrocefin conversion rates were plotted to obtain IC50 values by non-linear regression with variable slope using GraphPad Prism 10.4 software. Assays were performed at least as duplicate determinations in biological triplicate.

The target of assay [3] is T3, SA AgrC-III (Staphylococcus aureus, UniProt O33590). Kind of assay: β-Lactamase assay, reporter strain RN10829 (P2-agrA:P3-blaZ) with pagrC-III. In kind it is cell-based.
From the text: as §1

In assay [4] the target is T4, SA AgrC-IV (Staphylococcus aureus, UniProt Q309Z2). Kind of assay: β-Lactamase assay, reporter strain RN10829 (P2-agrA:P3-blaZ) with pagrC-IV. The class given is cell-based. The following applies: 100 nM cognate AIP; ± SEM; -b = no inhibition recorded at the highest AIP concentration tested; -a = only partial inhibition observed; this study (curves in Fig. S22).
From the text: as §1

In assay [5] the test system is S. aureus (SA) agr-I. The following applies: b-lactamase, cited from earlier work.
For assay [6], the system named is S. aureus (SA) agr-II. The following applies: b-lactamase, cited from earlier work.
The subject of assay [7] is S. aureus (SA) agr-III. Conditions: b-lactamase, cited from earlier work.
For assay [8], the system named is S. aureus (SA) agr-IV. Conditions: b-lactamase, cited from earlier work.
Assay [9] deals with T1, SA AgrC-I. The following applies: ± SEM, determined previously, ref (1), cited from earlier work; for IC50: 100 nM cognate AIP, -b = no inhibition recorded at the highest AIP concentration tested, read-out: IC50, SA AgrC-I, b-lactamase assay.
Assay [10] addresses T2, SA AgrC-II. Conditions: ± SEM, determined previously, ref (1), cited from earlier work; for IC50: 100 nM cognate AIP, -b = no inhibition recorded at the highest AIP concentration tested, read-out: IC50, SA AgrC-II, b-lactamase assay.
Assay [11] concerns the target T3, SA AgrC-III. The following applies: ± SEM, determined previously, ref (1), cited from earlier work; for IC50: 100 nM cognate AIP.
Assay [12] addresses T4, SA AgrC-IV. Conditions: ± SEM, determined previously, ref (1), cited from earlier work; for IC50: 100 nM cognate AIP, -b = no inhibition recorded at the highest AIP concentration tested, read-out: IC50, SA AgrC-IV, b-lactamase assay.
Assay [13] has as its system S. aureus (SA) agr-I. Conditions: fluorescence; ref (5); cited from earlier work.
In assay [14] the test system is S. aureus (SA) agr-III. The following applies: fluorescence; ref (5); cited from earlier work.
The subject of assay [15] is S. aureus (SA) agr-IV. The following applies: fluorescence; ref (5); cited from earlier work.
Assay [16] deals with S. aureus (SA) agr-I. Also on record: method as in ref (5) (a number printed in a supplementary file, which may have a reference list of its own: not looked up in the article's list). Conditions: hemolysis; ref (5); cited from earlier work.
The subject of assay [17] is S. aureus (SA) agr-III. Also on record: method as in ref (5) (a number printed in a supplementary file, which may have a reference list of its own: not looked up in the article's list). The following applies: hemolysis; ref (5); cited from earlier work.
For assay [18], the system named is S. aureus (SA) agr-IV. Also on record: method as in ref (5) (a number printed in a supplementary file, which may have a reference list of its own: not looked up in the article's list). Conditions: hemolysis; ref (5); cited from earlier work.
Assay [19] concerns S. epidermidis (SE) agr-I. Conditions: fluorescence, ref (11), cited from earlier work.
Assay [20] deals with S. epidermidis (SE) agr-I. Details: method as in ref (9) (a number printed in a supplementary file, which may have a reference list of its own: not looked up in the article's list). The following applies: HPLC d-toxin, ref (9); cited from earlier work.
The test system of assay [21] is S. aureus (SA) agr-II. Details: method as in ref (5) (a number printed in a supplementary file, which may have a reference list of its own: not looked up in the article's list). The following applies: hemolysis; ref (5); cited from earlier work.
Assay [22] concerns S. aureus (SA) agr-II. The following applies: fluorescence; ref (5); cited from earlier work.

Values joined by “and” are separate entries in the source; they are usually repeats but may differ in a detail not shown here. Equal values may be shown once. Read-outs that look alike come from different tables or passages of the source. Positions of bridges follow the written chain, without caps; N, C: chain ends. Residues, ends and D or L forms follow the SMILES beside them. A value given as a limit tells only on which side of the number the result lay.

T2 sequence (O33587 entry or part of it): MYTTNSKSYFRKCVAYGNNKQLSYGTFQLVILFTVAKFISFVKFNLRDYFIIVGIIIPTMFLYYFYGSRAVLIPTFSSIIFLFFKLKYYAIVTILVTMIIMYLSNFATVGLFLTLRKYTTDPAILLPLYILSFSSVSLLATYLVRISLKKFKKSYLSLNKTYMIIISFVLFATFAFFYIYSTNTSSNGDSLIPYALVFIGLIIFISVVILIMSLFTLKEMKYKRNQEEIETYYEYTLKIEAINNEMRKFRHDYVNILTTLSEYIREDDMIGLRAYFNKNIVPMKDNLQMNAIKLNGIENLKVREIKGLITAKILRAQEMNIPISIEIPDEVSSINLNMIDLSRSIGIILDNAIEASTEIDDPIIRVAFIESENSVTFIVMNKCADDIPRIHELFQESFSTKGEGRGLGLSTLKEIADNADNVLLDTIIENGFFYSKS
T1 sequence (O07911 entry or part of it): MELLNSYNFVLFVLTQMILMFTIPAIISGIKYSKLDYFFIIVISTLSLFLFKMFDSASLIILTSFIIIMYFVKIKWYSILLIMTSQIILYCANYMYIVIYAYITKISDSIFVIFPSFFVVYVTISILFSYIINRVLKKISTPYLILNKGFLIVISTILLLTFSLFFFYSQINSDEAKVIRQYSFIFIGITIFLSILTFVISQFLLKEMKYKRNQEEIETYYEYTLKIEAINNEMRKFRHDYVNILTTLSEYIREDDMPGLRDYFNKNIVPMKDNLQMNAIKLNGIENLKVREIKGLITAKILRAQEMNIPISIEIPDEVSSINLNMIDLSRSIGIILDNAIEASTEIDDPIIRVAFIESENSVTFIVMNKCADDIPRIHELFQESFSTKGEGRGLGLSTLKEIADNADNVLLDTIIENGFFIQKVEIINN
T3 sequence (O33590 entry or part of it): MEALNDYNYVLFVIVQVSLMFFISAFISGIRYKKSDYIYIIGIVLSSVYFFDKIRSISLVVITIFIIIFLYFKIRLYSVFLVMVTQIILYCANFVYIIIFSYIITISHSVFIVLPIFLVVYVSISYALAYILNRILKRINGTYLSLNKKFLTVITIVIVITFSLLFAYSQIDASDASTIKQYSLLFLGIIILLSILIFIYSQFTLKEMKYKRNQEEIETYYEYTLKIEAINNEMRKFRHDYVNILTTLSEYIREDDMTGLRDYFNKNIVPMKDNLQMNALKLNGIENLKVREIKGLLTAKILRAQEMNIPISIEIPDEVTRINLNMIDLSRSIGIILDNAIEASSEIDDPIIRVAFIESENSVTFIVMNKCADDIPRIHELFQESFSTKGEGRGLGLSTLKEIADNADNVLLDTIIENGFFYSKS
T4 sequence (Q309Z2 entry or part of it): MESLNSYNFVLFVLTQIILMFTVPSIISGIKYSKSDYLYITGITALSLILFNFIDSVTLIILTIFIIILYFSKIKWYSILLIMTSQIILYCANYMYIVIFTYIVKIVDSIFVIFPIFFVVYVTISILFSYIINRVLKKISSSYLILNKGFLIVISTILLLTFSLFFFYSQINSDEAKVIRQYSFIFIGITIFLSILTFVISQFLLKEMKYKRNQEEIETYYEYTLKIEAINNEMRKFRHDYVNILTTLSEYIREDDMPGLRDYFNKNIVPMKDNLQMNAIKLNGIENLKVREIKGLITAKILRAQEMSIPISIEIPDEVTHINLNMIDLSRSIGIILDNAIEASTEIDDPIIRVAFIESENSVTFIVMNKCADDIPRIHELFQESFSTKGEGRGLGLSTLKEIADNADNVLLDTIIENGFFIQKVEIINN

As for `CC[C@H](C)[C@H](NC(=O)[C@@H](N)CCCNC(=N)N)C(=O)N1CCC[C@H]1C(=O)N[C@H](C(=O)N[C@H]1COC(=O)[C@H](Cc2ccccc2)NC(=O)[C@H](Cc2ccccc2)NC(=O)CNC(=O)[C@H]([C@@H](C)O)NC1=O)[C@@H](C)O` [compound 31, S. intermedius AIP-I] (H-RIPTSTGFF; ester 5-C), the IC50 in [1] is 87 ± 20 nM; in [2] it was above 1000 nM; in assay [3], 104 ± 20 nM. For the same compound, in [4], the “IC50, SA AgrC-IV, b-lactamase assay” value is on record as “-b”. In addition, the “inhibition from supernatant, SA agr-I” value in assay [5] (from supernatant, ref (16)) is 80–100%. In assay [6] (from supernatant, ref (16)), the “inhibition from supernatant, SA agr-II” value is reported as 40–90%. In assay [7] (from supernatant, ref (16)), the “inhibition from supernatant, SA agr-III” value is given as 60–100%. Besides, the “inhibition from supernatant, SA agr-IV” value in assay [8] (from supernatant, ref (16)) is on record as 10–60%.
As to S. aureus AIP-II [compound 2], the IC50 in assay [9] was 110 ± 12 nM; in assay [11] (-b = no inhibition recorded at the highest AIP concentration tested, read-out: IC50, SA AgrC-III, b-lactamase assay), 40 ± 15 nM; in assay [12], 230 ± 19 nM; in assay [5] (ref (2)), 2.9 ± 1.2 nM; in assay [5] (ref (3)), 90 nM and 78 nM; in assay [5] (ref (4)), 40 nM. Moreover, the IC50 in [5] (ref (8)) was 12 ± 2.9 nM; in [7] (ref (2)), 3.2 ± 1.3 nM; in assay [7] (ref (4)), 1 nM; in [8] (ref (4)), 86 nM; in [13] it was 1.62 nM; in assay [14], 0.53 nM. Besides, the IC50 in [15] is 0.4 nM; in assay [16], 0.89 nM; in assay [17], 3.59 nM; in [18] it was 1.19 nM; in [19], 62.9 nM. Also, the EC50 was 3.7 ± 0.5 nM in assay [10] (read-out: EC50, SA AgrC-II, b-lactamase assay); 34 nM and 28 nM in assay [6] (ref (3)); 30 nM in [6] (ref (4)); 40.9 nM in assay [6] (ref (7)). The “inhibition at 1000 nM, SE agr-I” value in assay [20] is recorded as “no inhibition”.
For the compound S. aureus AIP-III [compound 3], the IC50 in [9] is 120 ± 15 nM; in [10] it was 150 ± 63 nM; in assay [12] it was above 1000 nM; in assay [5] (ref (4)), 70 nM; in assay [5] (ref (8)), 8 ± 1.1 nM; in assay [6] (ref (4)), 6 nM. In addition, the IC50 in assay [8] (ref (4)) is 150 nM; in assay [13], 5.05 nM; in assay [16], 8.07 nM; in [21], 0.46 nM; in [18], 23.8 nM. In addition, the EC50 is 11 ± 1 nM in assay [11] (read-out: EC50, SA AgrC-III, b-lactamase assay); 26 nM in [7] (ref (4)); 406 nM in assay [7] (ref (7)). Further, the “inhibition at 1000 nM, SE agr-I” value in assay [19] (at 1000 nM) and in [20] was “no inhibition” in each case.
For S. aureus AIP-IV [compound 4], the EC50 is 59 ± 2 nM in [9] (read-out: EC50, SA AgrC-I, b-lactamase assay); 2.6 ± 0.2 nM in assay [12] (read-out: EC50, SA AgrC-IV, b-lactamase assay); 62 nM in assay [5] (ref (4)); 13 nM in assay [8] (ref (4)); 7.9 nM in [8] (ref (7)). Moreover, the IC50 is 47 ± 9 nM in [10]; 9.8 ± 0.2 nM in assay [11] (only partial inhibition observed, read-out: IC50, SA AgrC-III, b-lactamase assay, only partial inhibition observed (footnote a)); 4 nM in assay [6] (ref (4)); 1 nM in assay [7] (ref (4)); 0.37 nM in [22]; 0.46 nM in [14]. In addition, the IC50 was 0.09 nM in assay [21], 1.49 nM in assay [17] and above 1000 nM in assay [19]. Besides, in assay [20], the “inhibition at 1000 nM, SE agr-I” value is on record as 40%.
